Measurements published in PMC4635063 (Cephalalgia : an international journal of headache, 2015).

Key:
[1] = biological target: T1, TRPM8 (transient receptor potential channel M8) (Rattus norvegicus, UniProt Q8R455); assay: agonist; type: cell-based
[2] = biological target: T1, TRPM8 (transient receptor potential channel M8); assay: aequorin luminescence calcium assay in CHO cells, inhibition of icilin; type: cell-based

T1 sequence (Q8R455 whole entry): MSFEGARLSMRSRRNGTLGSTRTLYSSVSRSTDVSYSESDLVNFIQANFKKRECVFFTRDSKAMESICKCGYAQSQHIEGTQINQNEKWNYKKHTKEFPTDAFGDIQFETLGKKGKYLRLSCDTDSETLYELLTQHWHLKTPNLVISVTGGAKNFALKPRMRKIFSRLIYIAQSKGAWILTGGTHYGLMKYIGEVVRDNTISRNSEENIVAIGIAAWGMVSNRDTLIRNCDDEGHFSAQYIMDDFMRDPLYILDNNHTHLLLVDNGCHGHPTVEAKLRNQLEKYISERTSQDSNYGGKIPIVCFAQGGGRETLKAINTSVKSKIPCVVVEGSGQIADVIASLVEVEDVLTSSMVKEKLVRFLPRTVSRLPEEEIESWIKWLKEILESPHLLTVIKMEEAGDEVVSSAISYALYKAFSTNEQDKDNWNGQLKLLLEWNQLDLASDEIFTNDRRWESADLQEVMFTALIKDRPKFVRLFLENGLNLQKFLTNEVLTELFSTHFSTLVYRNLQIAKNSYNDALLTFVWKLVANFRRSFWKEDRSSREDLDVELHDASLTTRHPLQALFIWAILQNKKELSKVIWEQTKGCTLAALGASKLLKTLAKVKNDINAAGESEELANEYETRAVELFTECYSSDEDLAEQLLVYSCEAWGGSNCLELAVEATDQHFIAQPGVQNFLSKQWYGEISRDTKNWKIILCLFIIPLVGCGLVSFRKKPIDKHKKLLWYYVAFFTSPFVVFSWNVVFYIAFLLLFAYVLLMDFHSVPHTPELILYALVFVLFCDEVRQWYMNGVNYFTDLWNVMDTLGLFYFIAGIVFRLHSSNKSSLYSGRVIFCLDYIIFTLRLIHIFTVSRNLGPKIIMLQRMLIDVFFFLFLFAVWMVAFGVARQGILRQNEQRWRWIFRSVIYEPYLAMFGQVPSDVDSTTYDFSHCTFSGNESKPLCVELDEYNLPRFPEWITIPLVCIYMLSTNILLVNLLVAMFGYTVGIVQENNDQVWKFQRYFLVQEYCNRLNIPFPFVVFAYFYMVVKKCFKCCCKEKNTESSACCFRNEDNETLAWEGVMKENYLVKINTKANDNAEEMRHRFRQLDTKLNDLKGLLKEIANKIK

Row | IC50 [2] [µM] | Molecule | agonist (1 uM) in aequorin luminescence calcium assay in CHO cells [1]
1 | – | O=C1NC(c2cccc([N+](=O)[O-])c2)=CCN1c1ccccc1O [icilin] | inhibition of TRPM8 activation by icilin and cold in cultured CHO cells stably transfected with rat TRPM8 channel
2 | 0.023 ± 0.0009 | AMG1161 | –
